These results are taken from ChEMBL document CHEMBL3507680, “University of Dundee, Gates Library screen for HepG2 cell viability”.

The series can be described thus: Human HepG2 cell viability assay in 384 well format. It is filed as toxicity, cell-based. On the set-up: dose 125 nL, time 70.5 hour; concentration not given beside the values. Particulars: HepG2 cells, read-out: Inhibition.
`CN(C)CCNc1ncccc1CNC(=O)Nc1cc(F)cc(F)c1`: the cytotoxicity at 70.5 h was -12%.
The result for `CNC(=O)c1cccc(CCNC2CCSc3ccccc32)c1` (stereo not given) reads -3.79%; that for `CNC(=O)c1cccc(CNC2CCSc3c(Cl)cccc32)c1` (stereo not given), 35.4%; that for `COc1ccccc1CN1CCCC(n2cccn2)C1` (stereo not given), -1.34%.
Regarding `O=C(CN1CCCCCC1=O)NC1CCc2nccn2C1` (stereo not given), the cytotoxicity at 70.5 h was -8.44%.
As for `CC(C(=O)N(C)Cc1ccco1)n1cncn1` (stereo not given), the figure is 1.02%; as for `CC(C)(C)OC(=O)N1CCCCC(NC(=O)CCc2cccnc2)C1` (stereo not given), -3.57%.
Consider `Cc1nnc(CSc2ccccn2)o1`, for which the cytotoxicity at 70.5 h was -13.6%.
As for `N#Cc1cn(C2CC2)c(=O)n(Cc2noc(-c3ccsc3)n2)c1=O`, the cytotoxicity at 70.5 h was -14%.
As for `O=C(CN1CCS(=O)(=O)CC1)Nc1ccc(N2CCCC2)nc1`, the figure is -5.27%.
Regarding `CS(=O)(=O)NC1CCN(C(=O)NCC2CCCO2)CC1` (stereo not given), the cytotoxicity at 70.5 h was -10.3%.
The result for `CC(C)(CNc1ccccc1S(=O)(=O)C(F)F)N1CCOCC1` reads -0.0351%.
Turning to `CC(OCC1CC1)C(=O)N1CCCN(c2nc3ccccc3[nH]2)CC1` (stereo not given), the cytotoxicity at 70.5 h is -3.86%.
The result for `Cc1ccc(F)cc1S(=O)(=O)NCc1[nH]ncc1Br` reads -0.985%.
As for `O=C(NC1=NCCS1)C1CSCN1C(=O)C1CCCC1` (stereo not given), the figure is -12.4%; as for `N#Cc1cn(C2CC2)c(=O)n(Cc2ncc(-c3cccs3)o2)c1=O`, -13%; as for `CCOc1ccc(N(C)Cc2nnc(C)o2)cc1`, 19.3%.
The result for `CN(C)C(=O)CCNC(=O)Nc1sc2ccccc2c1Cl` reads -7.68%; that for `CS(=O)(=O)CCNC(=O)Nc1sc2ccccc2c1Cl`, -11.7%.
Take `O=C(CN1C(=O)CCCc2sccc21)NC1CCc2nccn2C1` (stereo not given): the cytotoxicity at 70.5 h is -1.68%.
As for `CS(=O)(=O)CCCNC(=O)Nc1sc2ccccc2c1Cl`, the cytotoxicity at 70.5 h is -4.03%.
Take `Brc1cnc(NCCCOCC2CCOCC2)nc1`: the cytotoxicity at 70.5 h is -5.42%.
As for `c1cnc(NCCCOC2CCOCC2)nc1`, the cytotoxicity at 70.5 h amounted to 4.17%.
For the molecule `NC(=O)COCCNC(=O)Nc1sc2ccccc2c1Cl`, the cytotoxicity at 70.5 h was -9.32%.
Turning to `CS(=O)(=O)NCc1ccc(C(=O)NCc2ccc3c(c2)CCC3)o1`, the cytotoxicity at 70.5 h is -7.15%.
With `CCCC(O)CNc1cncc(Br)c1` (stereo not given), the cytotoxicity at 70.5 h was -5.08%.
As for `Clc1cc(Cl)cc(CN2CCC(NCc3ncc[nH]3)CC2)c1`, the figure is -4.36%; as for `COCCN1CC(C(=O)NCc2ccc(C)s2)CC1=O` (stereo not given), -1.18%.
Take `Cc1noc(CCCC(=O)N(CC2CCOC2)C2CC2)n1` (stereo not given): the cytotoxicity at 70.5 h is -11%.
In the case of `CCN(CC1CCOC1)C(=O)CCc1nc(C(C)(C)C)no1` (stereo not given), the cytotoxicity at 70.5 h is -10.1%.
As for `COC(=O)c1ncccc1N1CCN(C(=O)CN2CCOCC2)CC1`, the cytotoxicity at 70.5 h is 29.5%.
With `CN(CCSc1nncn1CC(F)(F)F)c1ccccc1`, the cytotoxicity at 70.5 h came to 1.22%.
For `CN1CCN(C2CCN(Cc3cn4ccccc4n3)CC2)C1=O`, the cytotoxicity at 70.5 h amounted to 19.5%.
In the case of `Cc1cccn2cc(CN3CCC(N4CCN(C)C4=O)CC3)nc12`, the cytotoxicity at 70.5 h was -6.74%.
On to `COC(=O)c1ncccc1N1CCC(C(O)c2ccccc2)CC1` (stereo not given), for which the cytotoxicity at 70.5 h is -6.81%.
As to `O=C(NCc1nnc2n1CCC2)c1cccc(Br)c1`, the cytotoxicity at 70.5 h is -9.88%.
`Cc1cc(C(=O)NC(C)Cc2cccc(Cl)c2)n(C)n1` (stereo not given): the cytotoxicity at 70.5 h is -2.61%.
On to `CC(NC(=O)Nc1ccc(-c2csnn2)cc1)C(=O)NC(C)(C)C` (stereo not given), for which the cytotoxicity at 70.5 h is -9.46%.
As for `N#Cc1cc(S(N)(=O)=O)ccc1N1CCN(c2ccccc2)CC1`, the cytotoxicity at 70.5 h turned out to be 1.86%.
Consider `Oc1cccc(CNCc2ccc(-n3cncn3)nc2)c1`, for which the cytotoxicity at 70.5 h is 0.561%.
As for `CN1CCN(c2ccc(F)cc2NC(=O)NCCn2ccnc2)CC1`, the figure is -0.0867%.
As for `N#Cc1ccc(CNCCc2cc(F)cc3c2OCOC3)cc1`, the figure is 7.73%; as for `CS(=O)(=O)NC(=O)c1ccn(-c2cccc(Br)c2)n1`, -3.84%.
For the molecule `CC(C)(C)NC(=O)CNc1ccc(Br)cn1`, the cytotoxicity at 70.5 h amounted to 0.762%.
As for `CCN1CCN(c2ccccc2NC(=O)NCc2ccon2)CC1`, the figure is -0.39%; as for `CCCn1ccnc1-c1cccc(NC(=O)[C@H]2CCC(=O)N2)c1`, 1.18%.
As for `Fc1cc(CCNc2ccc3nccn3n2)c2c(c1)COCO2`, the figure is 5.74%; as for `Cc1nc(CNC(=O)Nc2cc(F)ccc2N2CCN(C)CC2)no1`, -2.28%; as for `CC1CC(NS(=O)(=O)c2ccc(C(F)(F)F)nc2)C1` (stereo not given), 26.5%.
For `CCCn1ccnc1-c1cccc(NC(=O)C2CCCOC2)c1` (stereo not given), the cytotoxicity at 70.5 h was -5.58%.
The result for `CN(C)CCN(Cc1cccc(F)c1)C(=O)c1ccn(C)c(=O)c1` reads -2.08%; that for `CC(C)(C)CN(CCC#N)C(=O)c1cccc(CC#N)c1`, -3.08%.
Regarding `OCc1cccc(OCc2ccon2)c1`, the cytotoxicity at 70.5 h is -3.01%.
The result for `CN(CCSc1nncn1C(C)(C)C)c1ccccc1` reads 31%.
As for `N#CCCN(Cc1ccccn1)C(=O)c1cccc(CN2CCCC2)c1`, the figure is -1.86%; as for `CC(C#N)(NC(=O)c1ccc(C#N)cc1)C1CC1` (stereo not given), -0.776%; as for `CC(NC(=O)CNc1cc2c(cc1Cl)NC(=O)CO2)c1ccco1` (stereo not given), 14.6%.
The result for `CCOc1cc(CNC(=O)CNC(=O)CC2CCCCC2)ccn1` reads -6.29%.
Turning to `COc1ccc2cc(C(=O)NCCc3nc(C)no3)[nH]c2c1`, the cytotoxicity at 70.5 h was 5.04%.
Turning to `CCc1ccc(NC(C(N)=O)c2ccc(F)cc2)cc1` (stereo not given), the cytotoxicity at 70.5 h was -5.1%.
The result for `COc1ccc(-c2nc(CCNC(=O)NCC3CCOC3)co2)cc1` (stereo not given) reads -11.8%.
Take `CC(=O)NCCCNC(=O)N(C)C(C)Cc1ccc(Cl)cc1` (stereo not given): the cytotoxicity at 70.5 h was -8.06%.
The result for `CC(O)(CNC(=O)NCCc1ccc2c(c1)CCO2)c1ccsc1` (stereo not given) reads 1.66%; that for `NC(=O)C1CCCN1C(=O)c1cc(C2CC2)nc2ccc(F)cc12` (stereo not given), 18.9%.
The result for `COc1ccc(Cl)cc1CCNC(=O)NCc1noc(C)n1` reads -3.63%; that for `COc1ccccc1OCC(=O)NS(=O)(=O)c1cccnc1`, -8.19%; that for `Cc1noc(CCCC(=O)NCCc2cc3ccccc3[nH]2)n1`, -6.92%.
The result for `COc1ccc(Cl)cc1CCNC(=O)NCc1cnn(C)c1C` reads -4.39%; that for `N#CC(NC(=O)CC(F)(F)F)c1ccsc1` (stereo not given), -7.23%; that for `CC(NC(=O)CCn1cccn1)c1ccc(-n2ccnn2)cc1` (stereo not given), 15.4%.
As to `CCN(CC)C1CCN(C(=O)NCc2cccc(NC(C)=O)c2)C1` (stereo not given), the cytotoxicity at 70.5 h is -6.18%.
Regarding `COc1cc(C)ccc1OCCC(=O)N1CCC(N2CC=CC2)C1` (stereo not given), the cytotoxicity at 70.5 h is -2.75%.
As for `CC(C)Oc1ccc(CN)c(C(F)(F)F)c1`, the figure is -7.67%; as for `CCCS(=O)(=O)N1CCN(CCCO)CC1`, 0.836%.
For the molecule `Cc1cnn(C2CN(CCOc3ccc(C#N)cc3)C2)c1`, the cytotoxicity at 70.5 h was -5.99%.
In the case of `Cc1cn2nc(N(C)C3CCCN(c4cccnn4)C3)sc2n1` (stereo not given), the cytotoxicity at 70.5 h was -11.5%.
The result for `CC(NC(=O)N1CCCC1)c1ccc(S(N)(=O)=O)cc1` (stereo not given) reads -13%.
`CN(C)c1ccc(C(=O)Nc2ccn(CC(N)=O)n2)cn1`: the cytotoxicity at 70.5 h was -8.63%.
For the molecule `CN(C)c1ccc(C(=O)Nc2ccn(CCc3ccncc3)n2)cc1`, the cytotoxicity at 70.5 h came out at 15%.
The result for `Cc1nc2n(n1)CC(NCc1ccc(Cl)c3cccnc13)CC2` (stereo not given) reads -8.23%.
As for `Cc1cc(C[S+]([O-])Cc2ccccc2F)no1` (stereo not given), the figure is 16.6%.
Regarding `Cc1ccc(N2CCCC(N(C)c3nn4cc(C)nc4s3)C2)nn1` (stereo not given), the cytotoxicity at 70.5 h is -3.89%.
On to `COC(=O)NCC(=O)NC1(C)CCc2ccccc2C1` (stereo not given), for which the cytotoxicity at 70.5 h was -8.98%.
For the molecule `O=C1CN(c2ccc(C(=O)N3CCc4ccccc43)cn2)CCN1`, the cytotoxicity at 70.5 h was -6.79%.
As for `CN(C)c1ccc(C(=O)Nc2ccn(CCc3ccncc3)n2)cn1`, the figure is 0.589%; as for `CC(C)Cn1ncc(C(=O)O)c1C1CC1`, -5.02%.
The result for `CC(CC(=O)c1ccco1)NC(=O)c1ccon1` (stereo not given) reads -8.03%; that for `CCOc1ccc(Cl)cc1CCNC(=O)Cn1ccccc1=O`, -3.35%; that for `Cc1cccn2cc(CNS(=O)(=O)N3CCOCC3)nc12`, -5.24%.
The result for `CC(NC(=O)N1CCC1)c1ccc(S(C)(=O)=O)cc1` (stereo not given) reads -5.1%; that for `COC(=O)c1ccc(NC(=O)CCc2ccco2)cc1`, -8.07%; that for `Cc1nsc(N2CCN(CC(=O)N(C3CC3)C(C)C3CC3)CC2)n1` (stereo not given), 13.6%.
Take `CCn1nc(C)cc1C(=O)OCC1CC(=O)N(Cc2ccccc2)C1` (stereo not given): the cytotoxicity at 70.5 h came to 0.617%.
The result for `Cc1cnn(C2CN(CCOc3ccccc3C#N)C2)c1` reads -4.34%; that for `CCOc1cc(Cl)ccc1CNC(=O)c1ccc(=O)n(C)c1`, 11.4%.
Take `CCCS(=O)(=O)N1CCCN(CCCOC)CC1`: the cytotoxicity at 70.5 h was 8.01%.
As for `CC(C)Cn1ncc(C(=O)NS(=O)(=O)c2ccccc2)c1C1CC1`, the figure is -8.45%; as for `O=C(CNC(=O)c1ccccc1Cl)Nc1nccs1`, 1.89%; as for `NC(=O)Cn1c(SCc2noc(-c3ccsc3)n2)nnc1C1CC1`, -1.96%.
The result for `COCCCC(=O)NCc1cccc(NC(N)=O)c1` reads -3.29%.
Regarding `COc1cc(Cl)ccc1C(=O)NCC(=O)Nc1nccs1`, the cytotoxicity at 70.5 h was -5.69%.
As for `CCOCCCC(=O)Nc1[nH]nc(-c2ccncc2)c1C`, the figure is -9.37%; as for `NC(=O)N1CCCC(C(=O)Nc2cccc(Cl)c2)C1` (stereo not given), -8.06%; as for `COC(=O)c1oc(CNC(C)(C)CO)cc1C`, -5.24%.
In the case of `c1cc(CNCc2ccc(-n3cncn3)nc2)cc(OC2CCCC2)c1`, the cytotoxicity at 70.5 h was -6.11%.
